Assay results from patent US12527774B2, “Estrogen-related receptor alpha modulators” (LEAD PHARMA HOLDING B.V., priority 2019, dated 2026).

Target: ERRα ligand binding domain (ERRα-LBD) (Homo sapiens (Human), UniProt P11474)
Test: ERRα AlphaScreen Assay
Type: biochemical
Conditions: disruption of binding of ERRα-LBD protein to biotin-PGC1α-3 co-activator peptide; for IC50: read-out: mean pIC50 (converted)
Description: This assay was based on the knowledge that nuclear receptors interact with cofactors in a ligand dependent matter. The sites of interaction have been mapped to LXXLL motifs that are present in the co-activator sequences. Short peptide sequences that contain the LXXLL motif mimic the behavior of full length co-activators.
The ERRα AlphaScreen Assay described here relies on the interaction of the co-activator peptide with purified bacterial-expressed ERRα ligand binding domain (ERRα-LBD); upon ligand binding the ERRα protein can undergo a conformational change resulting in a loss of co-activator binding.
Compounds of the present invention were tested for their ability to disrupt binding of ERRα-LBD protein to co-activator peptide using AlphaScreen® Technology (Perkin Elmer). ERRα-LBD protein was expressed in E. coli as a 6×His Small Ubiquitin-like Modifier (SUMO) fusion. Bacterial expressed 6His-SUMO-ERRα-LBD protein was purified using affinity chromatography. All experiments were performed at room temperature in 384-well white non-binding plates (Greiner) using 50 mM Tris-HCl pH 7.5, 100 mM NaCl, 0,1% Pluronic F-127, 0.05% BSA and 5 mM TCEP as the buffer. Final DMSO concentration was 1% in the assay. Compounds were assayed in triplicate and: incubated with 0.81 nM ERRα-LBD protein and 10 μg/mL streptavidin donor beads and 10 μg/mL Ni-chelate acceptor beads for 1 hour at room temperature; followed by a 2-hour incubation with 15 nM biotin-PGC1α-3 peptide (QRRPCSELLKYLTTNDDPP) corresponding to amino acids 202 to 220.
The AlphaScreen signal was measured using an Envision Xcite plate reader (Perkin Elmer). Data was normalized, and curve fitting analysis was performed in GraphPad Prism 7 using a four-parameter dose-response fit.
As multiple IC50 values were annotated for the same compound-protein pair, a mean pIC50 for each compound was determined.

Chain of ERRα ligand binding domain (ERRα-LBD) (P11474 193-421): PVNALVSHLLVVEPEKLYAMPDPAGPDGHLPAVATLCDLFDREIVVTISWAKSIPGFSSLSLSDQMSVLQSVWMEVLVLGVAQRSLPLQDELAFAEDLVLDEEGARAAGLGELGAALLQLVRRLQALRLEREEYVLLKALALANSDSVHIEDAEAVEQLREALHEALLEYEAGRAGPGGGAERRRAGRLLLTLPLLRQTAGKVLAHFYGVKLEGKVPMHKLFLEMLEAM

## COc1cc(C2CC(=O)Nc3n[nH]cc32)ccc1OCc1cccc2cccnc12 (centres unmarked) [Example 47, 4-{3-methoxy-4-[(quinolin-8-yl)methoxy]phenyl}-2H,4H,5H,6H, 7H-pyrazolo[3,4-b]pyridin-6-one]
  IC50: 100 to 1000 nM

## COc1cc(-c2cc(=O)[nH]c3[nH]ccc23)ccc1OCc1ccccc1C(F)(F)F [Example 168, 4-(3-methoxy-4-{[2-(trifluoromethyl)phenyl]methoxy}phenyl)-1H,6H, 7H-pyrrolo[2,3-b]pyridin-6-one]
  IC50: 100 to 1000 nM

## COc1cc(C2CC(=O)Nc3n[nH]cc32)ccc1COc1cc(C)cc(C)c1 (centres unmarked) [Example 113, 4-{4-[(3,5-dimethylphenoxy)methyl]-3-methoxyphenyl}-2H,4H,5H,6H,7H-pyrazolo[3,4-b]pyridin-6-one]
  IC50: 100 to 1000 nM

## COc1cc(C2CC(=O)Nc3n[nH]c(C)c32)ccc1OCc1ccccc1C(F)(F)F (centres unmarked) [Example 82, 4-(3-methoxy-4-{[2-(trifluoromethyl)phenyl]methoxy}phenyl)-3-methyl-2H,4H,5H,6H,7H-pyrazolo[3,4-b]pyridin-6-one]
  IC50: 100 to 1000 nM

## COc1cc(C2CC(=O)Nc3n[nH]cc32)ccc1COc1ccc(C(F)(F)F)cc1C(F)F (single isomer, unassigned; (-)) [Example 216, (−)-4-(4-{[2-(difluoromethyl)-4-(trifluoromethyl)phenoxy]methyl}-3-methoxyphenyl)-2H,4H,5H,6H,7H-pyrazolo[3,4-b]pyridin-6-one]
  IC50: 10 to 100 nM

## COCCOc1cc(C2CC(=O)Nc3n[nH]cc32)ccc1OCc1ccccc1C(F)(F)F (centres unmarked) [Example 164, 4-[3-(2-methoxyethoxy)-4-{[2-(trifluoromethyl)phenyl]methoxy}phenyl]-2H,4H,5H,6H, 7H-pyrazolo[3,4-b]pyridin-6-one]
  IC50: 10 to 100 nM

## COc1cc(C2CC(=O)Nc3n[nH]nc32)ccc1OCc1ccc(N)cc1C(F)(F)F (single isomer, unassigned; (-)) [Example 206, (−)-7-(4-{[4-amino-2-(trifluoromethyl)phenyl]methoxy}-3-methoxyphenyl)-2H,4H,5H,6H,7H-[1,2,3]triazolo[4,5-b]pyridin-5-one]
  IC50: 10 to 100 nM

## COc1cc(-c2cc(=O)[nH]c3n[nH]cc23)ccc1OCc1ccc(N)cc1C(F)(F)F [Example 173, 4-(4-{[4-amino-2-(trifluoromethyl)phenyl]methoxy}-3-methoxyphenyl)-2H,6H,7H-pyrazolo[3,4-b]pyridin-6-one]
  mean pIC50: ≥ 8

## COc1cc(C2CC(=O)Nc3nn(C)cc32)ccc1OCc1ccccc1C(F)(F)F (centres unmarked) [Example 80, 4-(3-methoxy-4-{[2-(trifluoromethyl)phenyl]methoxy}phenyl)-2-methyl-2H,4H,5H,6H,7H-pyrazolo[3,4-b]pyridin-6-one]
  IC50: 100 to 1000 nM

## COc1cc(C2CC(=O)Nc3n[nH]cc32)ccc1OCc1ccc(NC(C)=O)cc1C(F)(F)F (centres unmarked) [Example 139, N-{4-[(2-methoxy-4-{6-oxo-2H,4H,5H,6H,7H-pyrazolo[3,4-b]pyridin-4-yl}phenoxy)methyl]-3-(trifluoromethyl)phenyl}acetamide]
  IC50: 10 to 100 nM

## COc1cc(C2CC(=O)Nc3n[nH]cc32)ccc1OCc1cccc2c1OCCCO2 (centres unmarked) [Example 51, 4-{4-[(3,4-dihydro-2H-1,5-benzodioxepin-6-yl)methoxy]-3-methoxyphenyl}-2H,4H,5H, 6H, 7H-pyrazolo[3,4-b]pyridin-6-one]
  IC50: 100 to 1000 nM

## O=C1CC(c2ccc(OCc3ccccc3C(F)(F)F)c(C(=O)OCCO)c2)c2c[nH]nc2N1 (centres unmarked) [Example 132, 2-hydroxyethyl 5-{6-oxo-2H,4H,5H,6H, 7H-pyrazolo[3,4-b]pyridin-4-yl}-2-{[2-(trifluoromethyl)phenyl]methoxy}benzoate]
  IC50: 100 to 1000 nM

## COc1cc(C2CC(=O)Nc3n[nH]cc32)ccc1COc1ccc(C(F)F)cc1C(F)F (centres unmarked) [Example 116, 4-(4-{[2,4-bis(difluoromethyl)phenoxy]methyl}-3-methoxyphenyl)-2H,4H,5H,6H,7H-pyrazolo[3,4-b]pyridin-6-one]
  IC50: 10 to 100 nM

## COc1ccc(C(F)(F)F)c(COc2ccc(C3CC(=O)Nc4n[nH]cc43)cc2OC)c1 (centres unmarked) [Example 35, 4-(3-methoxy-4-{[5-methoxy-2-(trifluoromethyl)phenyl]methoxy}phenyl)-2H,4H,5H,6H,7H-pyrazolo[3,4-b]pyridin-6-one]
  IC50: 10 to 100 nM

## COc1cc(C2CC(=O)Nc3n[nH]cc32)ccc1COc1ccc(C)cc1C (single isomer, unassigned; (+)) [Example 219, (+)-4-{4-[(2,4-dimethylphenoxy)methyl]-3-methoxyphenyl}-2H,4H,5H,6H,7H-pyrazolo[3,4-b]pyridin-6-one]
  IC50: 100 to 1000 nM

## COc1cc(C2CC(=O)Nc3n[nH]cc32)ccc1OCc1cccc(Br)c1 (centres unmarked) [Example 11, 4-{4-[(3-bromophenyl)methoxy]-3-methoxyphenyl}-2H,4H,5H,6H, 7H-pyrazolo[3,4-b]pyridin-6-one]
  IC50: 100 to 1000 nM

## CNc1ccc(COc2ccc(C3CC(=O)Nc4n[nH]cc43)cc2OC)c(C(F)(F)F)c1 (centres unmarked) [Example 141, 4-(3-methoxy-4-{[4-(methylamino)-2-(trifluoromethyl)phenyl]methoxy}phenyl)-2H,4H,5H,6H,7H-pyrazolo[3,4-b]pyridin-6-one]
  mean pIC50: ≥ 8

## COc1cc(C2CC(=O)Nc3c[nH]cc32)ccc1COc1ccc(C(F)(F)F)cc1C(F)(F)F (centres unmarked) [Example 190, 4-(4-{[2,4-bis(trifluoromethyl)phenoxy]methyl}-3-methoxyphenyl)-1H,2H,3H,4H, 6H-pyrrolo[3,4-b]pyridin-2-one]
  IC50: 10 to 100 nM

## COc1cc(C2CC(=O)Nc3n[nH]cc32)ccc1OCc1ccccc1C(=O)OC(C)C (centres unmarked) [Example 127, propan-2-yl 2-(2-methoxy-4-{6-oxo-2H,4H,5H,6H,7H-pyrazolo[3,4-b]pyridin-4-yl}phenoxymethyl)benzoate]
  IC50: 100 to 1000 nM

## COc1cc(C2CC(=O)Nc3n[nH]cc32)ccc1COc1ccc(C(F)(F)F)cc1C(F)F (single isomer, unassigned; (+)) [Example 215, (+)-4-(4-{[2-(difluoromethyl)-4-(trifluoromethyl)phenoxy]methyl}-3-methoxyphenyl)-2H,4H,5H,6H,7H-pyrazolo[3,4-b]pyridin-6-one]
  IC50: 100 to 1000 nM

## COc1cc(C2CC(=O)Nc3n[nH]cc32)ccc1OCc1ccc(C#N)cc1C(F)(F)F (centres unmarked) [Example 105, 4-[(2-methoxy-4-{6-oxo-2H,4H,55H, 6H, 7H-pyrazolo[3,4-b]pyridin-4-yl}phenyl)methoxy]-3-(trifluoromethyl)benzonitrile]
  IC50: 10 to 100 nM

## COc1cc(C2CC(=O)Nc3ncsc32)ccc1OCc1ccccc1C(F)(F)F (centres unmarked) [Example 88, 7-(3-methoxy-4-{[2-(trifluoromethyl)phenyl]methoxy}phenyl)-4H,5H,6H,7H-[1,3]thiazolo[4,5-b]pyridin-5-one]
  IC50: 100 to 1000 nM

## O=C1CC(c2ccc(OCc3ccccc3C(F)(F)F)c(C(F)(F)F)c2)c2c[nH]nc2N1 (centres unmarked) [Example 76, 4-[3-(trifluoromethyl)-4-{[2-(trifluoromethyl)phenyl]methoxy}phenyl]-2H,4H,5H,6H, 7H-pyrazolo[3,4-b]pyridin-6-one]
  IC50: 100 to 1000 nM

## COc1cc(C2CC(=O)Nc3n[nH]cc32)ccc1OCc1ccccc1Br (centres unmarked) [Example 4, 4-{4-[(2-bromophenyl)methoxy]-3-methoxyphenyl}-2H,4H,5H,6H, 7H-pyrazolo[3,4-b]pyridin-6-one]
  IC50: 10 to 100 nM

## COc1cc(C2CC(=O)Nc3n[nH]cc32)ccc1OCc1ccc(C(C)=O)cc1C(F)(F)F (single isomer, unassigned; (+)) [Example 199, (+)-4-(4-{[4-acetyl-2-(trifluoromethyl)phenyl]methoxy}-3-methoxyphenyl)-2H,4H,5H,6H,7H-pyrazolo[3,4-b]pyridin-6-one]
  IC50: 100 to 1000 nM

## NC(=O)c1cc(C2CC(=O)Nc3n[nH]cc32)ccc1OCc1ccccc1C(F)(F)F (centres unmarked) [Example 130, 5-{6-oxo-2H,4H,5H,6H, 7H-pyrazolo[3,4-b]pyridin-4-yl}-2-{[2-(trifluoromethyl)phenyl]methoxy}benzamide]
  IC50: 100 to 1000 nM

## O=C1CC(c2ccc(COc3ccc(C(F)(F)F)cc3C(F)(F)F)c(OC(F)(F)F)c2)c2c[nH]nc2N1 (centres unmarked) [Example 109, 4-(4-{[2,4-bis(trifluoromethyl)phenoxy]methyl}-3-(trifluoromethoxy)phenyl)-2H,4H,5H,6H,7H-pyrazolo[3,4-b]pyridin-6-one]
  IC50: 10 to 100 nM

## COc1cc(C2CC(=N)Nc3n[nH]cc32)ccc1OCc1ccccc1C(F)(F)F (centres unmarked) [Example 167, 4-(3-methoxy-4-{[2-(trifluoromethyl)phenyl]methoxy}phenyl)-2H,4H,5H,6H, 7H-pyrazolo[3,4-b]pyridin-6-imine]
  IC50: 100 to 1000 nM

## COc1cc(Br)c(COc2ccc(-c3cc(=O)[nH]c4n[nH]cc34)cc2OC)cc1OC [Example 184, 4-{4-[(2-bromo-4,5-dimethoxyphenyl)methoxy]-3-methoxyphenyl}-2H,6H, 7H-pyrazolo[3,4-b]pyridin-6-one]
  IC50: 100 to 1000 nM
